Assays:
[1] = test system: MCF7; assay: Cytotoxic effect on human MCF-7 breast cancer cell line as percentage growth at 10e-4 M; type: functional
[2] = test system: NCI-H460; assay: Cytotoxic effect on human NCI-H460 lung cancer cell line as percentage growth after inoculation at 10e-4 M; type: functional
[3] = test system: SF-268; assay: Cytotoxic effect on human SF-268 glioma cancer cell line as percentage growth after inoculation at 10e-4 M; type: functional
[4] = test system: Panel CNS (Carcinoma cell lines); assay: Inhibition of proliferation in NCI human CNS tumor cell lines; type: functional
[5] = test system: Panel CNS (Carcinoma cell lines); assay: Cytotoxic effect on human CNS tumor cell lines; type: functional
[6] = test system: Panel CNS (Carcinoma cell lines); assay: Cytostatic effect on human CNS tumor cell lines; type: functional
[7] = test system: Panel colon (Carcinoma cell lines); assay: Cytostatic effect on human colon tumor cell lines; type: functional
[8] = test system: Panel leukemia (Carcinoma cell lines); assay: Inhibition of proliferation in NCI human leukemia tumor cell lines; type: functional
[9] = test system: NSCLC; assay: Cytostatic effect on human non-small cell lung carcinoma tumor cell lines; type: functional
[10] = test system: NSCLC; assay: Inhibition of proliferation in NCI human non-small cell lung tumor cell lines; type: functional
[11] = test system: Panel prostate (Carcinoma cell lines); assay: Cytotoxic effect on human prostate tumor cell lines; type: functional
[12] = test system: Panel breast (Carcinoma cell lines); assay: Inhibition of proliferation in NCI human breast tumor cell lines; type: functional
[13] = test system: Panel breast (Carcinoma cell lines); assay: Cytostatic effect on human breast tumor cell lines; type: functional
[14] = test system: Panel leukemia (Carcinoma cell lines); assay: Cytotoxic effect on human leukemia tumor cell lines; type: functional
[15] = test system: Panel leukemia (Carcinoma cell lines); assay: Cytostatic effect on human leukemia tumor cell lines; type: functional
[16] = test system: Panel colon (Carcinoma cell lines); assay: Inhibition of proliferation in NCI human colon tumor cell lines; type: functional
[17] = test system: Panel colon (Carcinoma cell lines); assay: Cytotoxic effect on human colon tumor cell lines; type: functional
[18] = test system: Panel ovarian (Carcinoma cell lines); assay: Inhibition of proliferation in NCI human ovarian tumor cell lines; type: functional
[19] = test system: Panel ovarian (Carcinoma cell lines); assay: Cytotoxic effect on human ovarian tumor cell lines; type: functional
[20] = test system: Panel ovarian (Carcinoma cell lines); assay: Cytostatic effect on human ovarian tumor cell lines; type: functional
[21] = test system: Panel melanoma (Carcinoma cell lines); assay: Inhibition of proliferation in NCI human melanoma tumor cell lines; type: functional
[22] = test system: Panel melanoma (Carcinoma cell lines); assay: Cytotoxic effect on human melanoma tumor cell lines; type: functional
[23] = test system: Panel melanoma (Carcinoma cell lines); assay: Cytostatic effect on human melanoma tumor cell lines; type: functional
[24] = test system: Panel prostate (Carcinoma cell lines); assay: Inhibition of proliferation in NCI human prostate tumor cell lines; type: functional
[25] = test system: Panel prostate (Carcinoma cell lines); assay: Cytostatic effect on human prostate tumor cell lines; type: functional
[26] = Cytostatic effect on 60 human tumor cell line panel, MG-MID represents mean value; type: functional
[27] = Inhibition of proliferation in NCI 60 human tumor cell line panel, MG-MID represents mean value; type: functional
[28] = Cytotoxic effect on 60 human tumor cell line panel, MG-MID represents mean value; type: functional
[29] = test system: Panel renal (Carcinoma cell lines); assay: Inhibition of proliferation in NCI human renal tumor cell lines; type: functional
[30] = test system: Panel renal (Carcinoma cell lines); assay: Cytotoxic effect on human renal tumor cell lines; type: functional
[31] = test system: Panel renal (Carcinoma cell lines); assay: Cytostatic effect on human renal tumor cell lines; type: functional
[32] = biological target: Cyclin-dependent kinase 1/cyclin B (Homo sapiens, UniProt P06493); assay: Inhibition of Cyclin-dependent kinase 1-cyclin B; type: protein-complex assay
[33] = test system: Panel breast (Carcinoma cell lines); assay: Cytotoxic effect on human breast tumor cell lines; type: functional

SMILES | Growth [1] | Growth [2] | Growth [3] | GI50 [4] | LC50 [5] | logTGI [6] | logTGI [7] | GI50 [8] | logTGI [9] | GI50 [10] | LC50 [11] | GI50 [12] | logTGI [13] | LC50 [14] | logTGI [15] | GI50 [16] | LC50 [17] | GI50 [18] | LC50 [19] | GI50 [21] | other results
COc1cc2c(cc1C)NC(=O)/C2=C/c1c(Cl)n(C)c2ccccc12 | 3% | -50% | -14% |  |  |  |  |  |  |  |  |  |  |  |  |  |  |  |  |  | 
COc1ccc2c(c1)/C(=C\c1c(Cl)[nH]c3cc(C)c(OC)cc13)C(=O)N2 | -54% | -48% | -44% | 794 nM | -4.7 | -5.2 log M | -5 log M | 501 nM | -4.8 log M | 2510 nM | -4.4 | 1000 nM | -5 log M | -4.2 | -5.1 log M | 1000 nM | -4.4 | 794 nM | -4.3 | 1000 nM | logTGI [20]: -5.3 log M; LC50 [22]: -4.5; logTGI [23]: -5 log M; GI50 [24]: 1260 nM; logTGI [25]: -5.1 log M; logTGI [26]: -5 log M; GI50 [27]: 1000 nM; LC50 [28]: -4.3; GI50 [29]: 2000 nM; LC50 [30]: -4.3; logTGI [31]: -4.8 log M
O=C1Nc2ccccc2/C1=C\c1c(Cl)n(-c2ccccc2)c2ccccc12 | 8% | -16% | -17% |  |  |  |  |  |  |  |  |  |  |  |  |  |  |  |  |  | 
O=C1/C(=C/c2c(Cl)[nH]c3ccccc23)c2ccccc2N1c1ccccc1 | -3% | -1% | 6% |  |  |  |  |  |  |  |  |  |  |  |  |  |  |  |  |  | 
COc1cc2c(/C=C3/C(=O)N(C)c4ccccc43)c(Cl)[nH]c2cc1C | 4% | -18% | -1% | 200 nM | -4.5 | -5.6 log M | -5 log M | 251 nM | -5 log M | 794 nM | -4 | 158 nM | -5.1 log M | -4 | -4.6 log M | 316 nM | -4.2 | 316 nM | -4.3 | 631 nM | logTGI [20]: -5.2 log M; LC50 [22]: -4; logTGI [23]: -4.6 log M; GI50 [24]: 398 nM; logTGI [25]: -4.7 log M; logTGI [26]: -4.9 log M; GI50 [27]: 398 nM; LC50 [28]: -4.1; GI50 [29]: 2000 nM; LC50 [30]: -4; logTGI [31]: -4.2 log M
COc1ccc2[nH]c(Cl)c(/C=C3/C(=O)N(c4ccccc4)c4ccccc43)c2c1 | 3% | 2% | 15% |  |  |  |  |  |  |  |  |  |  |  |  |  |  |  |  |  | 
O=C1Nc2ccccc2/C1=C\c1c(Cl)[nH]c2ccc(O)cc12 | -69% | -82% | -34% |  |  |  |  |  |  |  |  |  |  |  |  |  |  |  |  |  | IC50 [32]: 30 µM
COc1ccc2[nH]c(Cl)c(/C=C3/C(=O)Nc4cc(C)c(OC)cc43)c2c1 | -23% | -23% | -54% |  |  |  |  |  |  |  |  |  |  |  |  |  |  |  |  |  | IC50 [32]: 30 µM
COc1ccc2c(c1)/C(=C\c1c(Cl)n(-c3ccccc3)c3ccccc13)C(=O)N2 | -6% | -28% | 12% |  |  |  |  |  |  |  |  |  |  |  |  |  |  |  |  |  | 
COc1cc2c(cc1C)NC(=O)/C2=C/c1c(Cl)[nH]c2cc(C)c(OC)cc12 | -51% | -63% | -67% | 631 nM | -4.6 | -5.3 log M | -4.7 log M | 501 nM | -4.8 log M | 3160 nM | -4.4 | 2510 nM | -4.7 log M | -4.2 | -4.8 log M | 3980 nM | -4.2 | 2000 nM | -4.4 | 3160 nM | LC50 [33]: -4.1; TGI [20]: -4.9 log10 M; LC50 [22]: -4.3; TGI [23]: -4.8 log10 M; GI50 [24]: 1260 nM; logTGI [25]: -4.9 log M; logTGI [26]: -4.8 log M; GI50 [27]: 2000 nM; LC50 [28]: -4.3; GI50 [29]: 2510 nM; LC50 [30]: -4.3; logTGI [31]: -4.8 log M
COc1cc2c(/C=C3/C(=O)Nc4ccccc43)c(Cl)[nH]c2cc1C | -54% | -39% | -30% | 79.4 nM | -4.4 | -5.6 log M | -5.1 log M | 63.1 nM | -4.7 log M | 126 nM | -4.4 | 100 nM | -5.3 log M | -4.1 | -4.7 log M | 79.4 nM | -4.6 | 79.4 nM | -4.4 | 126 nM | logTGI [20]: -5.2 log M; LC50 [22]: -4.6; logTGI [23]: -5 log M; GI50 [24]: 126 nM; logTGI [25]: -4.8 log M; logTGI [26]: -5 log M; GI50 [27]: 100 nM; LC50 [28]: -4.3; GI50 [29]: 200 nM; LC50 [30]: -4.3; logTGI [31]: -4.7 log M
COc1cc2c(cc1C)NC(=O)/C2=C/c1c(Cl)n(-c2ccccc2)c2ccccc12 | 8% | 5% | 51% |  |  |  |  |  |  |  |  |  |  |  |  |  |  |  |  |  | 
COc1cc2c(cc1C)NC(=O)/C2=C/c1c(Cl)[nH]c2ccccc12 | -35% | -35% | -48% |  |  |  |  |  |  |  |  |  |  |  |  |  |  |  |  |  | IC50 [32]: 20 µM
COc1cc2c(/C=C3/C(=O)N(c4ccccc4)c4ccccc43)c(Cl)[nH]c2cc1C | 1% | -10% | 1% | 3160 nM | -4.2 | -4.7 log M | -4.7 log M | 2510 nM | -4.5 log M | 3160 nM | -4 | 2510 nM | -5 log M | -4 | -4.4 log M | 2510 nM | -4.2 | 2510 nM | -4.3 | 3160 nM | logTGI [20]: -4.8 log M; LC50 [22]: -4.3; logTGI [23]: -4.9 log M; GI50 [24]: 3160 nM; logTGI [25]: -4.9 log M; logTGI [26]: -4.7 log M; GI50 [27]: 3160 nM; LC50 [28]: -4.1; GI50 [29]: 3980 nM; LC50 [30]: -4.1; logTGI [31]: -4.4 log M
CC[C@]1(O)C[C@H]2CN(CCc3c([nH]c4ccccc34)[C@@](C(=O)OC)(c3cc4c(cc3OC)N(C=O)[C@H]3[C@@](O)(C(=O)OC)[C@H](OC(C)=O)[C@]5(CC)C=CCN6CC[C@]43[C@@H]65)C2)C1.O=S(=O)(O)O [VINCRISTINE SULFATE] |  |  |  | 126 nM | -3.7 | -5.2 | -5.4 | 100 nM | -4.8 log M | 251 nM | -3.5 | 316 nM | -5.1 | -3.2 | -4.8 | 100 nM | -4.1 | 316 nM | -3.5 | 158 nM | LC50 [33]: -3.5; logTGI [20]: -4.7; LC50 [22]: -3.6; logTGI [23]: -5.1 log M; GI50 [24]: 126 nM; logTGI [25]: -5.2; logTGI [26]: -5; GI50 [27]: 200 nM; LC50 [28]: -3.6; GI50 [29]: 316 nM; LC50 [30]: -3.6; logTGI [31]: -4.7
